Laboratory results reported in publication PMC7541926 (Preventive Nutrition and Food Science, 2020).

Legend:
[1] = target: T1, Saccharomyces cerevisiae α-glucosidase (Saccharomyces cerevisiae, UniProt P53341); experiment: Enzyme kinetics of α-glucosidase inhibitory activity; details: Lineweaver-Burk double reciprocal plot
[2] = target: T1, Saccharomyces cerevisiae α-glucosidase; experiment: Enzyme assay for α-glucosidase inhibitory activity

T1 sequence (P53341 whole entry): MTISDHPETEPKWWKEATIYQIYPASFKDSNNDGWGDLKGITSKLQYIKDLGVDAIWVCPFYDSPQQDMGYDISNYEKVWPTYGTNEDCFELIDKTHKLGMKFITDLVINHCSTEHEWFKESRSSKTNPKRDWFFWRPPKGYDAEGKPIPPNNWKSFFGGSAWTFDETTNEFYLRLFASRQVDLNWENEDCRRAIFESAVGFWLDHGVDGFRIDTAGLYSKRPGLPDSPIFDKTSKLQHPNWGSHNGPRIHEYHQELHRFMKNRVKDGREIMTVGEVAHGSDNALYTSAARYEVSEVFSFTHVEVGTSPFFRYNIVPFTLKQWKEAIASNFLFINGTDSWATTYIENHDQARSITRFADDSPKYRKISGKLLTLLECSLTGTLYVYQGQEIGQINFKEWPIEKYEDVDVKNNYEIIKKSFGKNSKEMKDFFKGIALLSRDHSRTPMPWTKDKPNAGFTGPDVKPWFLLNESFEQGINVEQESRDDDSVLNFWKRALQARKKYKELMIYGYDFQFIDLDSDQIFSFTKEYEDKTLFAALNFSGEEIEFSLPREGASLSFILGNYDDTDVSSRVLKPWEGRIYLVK

Row | SMILES | Mode of inhibition [1] | IC50 [2] [µM]
1 | C[C@H]1O[C@H](O[C@H]2[C@H](O)[C@@H](O)[C@@H](O[C@H]3[C@H](O)[C@@H](O)C(O)O[C@@H]3CO)O[C@@H]2CO)[C@H](O)[C@@H](O)[C@@H]1N[C@H]1C=C(CO)[C@@H](O)[C@H](O)[C@H]1O (some centres unmarked) [Acarbose, acarbose, reference compound] | Competitive | –
2 | Oc1cc(O)c2cc(O)c(-c3ccc(O)c(O)c3)[o+]c2c1 [Cyanidin, cyanidin chloride] | Mixed type, close to non-competitive | 17 ± 1.35
3 | Oc1cc(O)c2cc(O)c(-c3cc(O)c(O)c(O)c3)[o+]c2c1 [Delphinidin, delphinidin chloride] | Mixed type, close to non-competitive | 4.11 ± 0.49
4 | COc1cc(-c2[o+]c3cc(O)cc(O)c3cc2O)cc(OC)c1O [Malvidin, malvidin chloride] | Mixed type, close to non-competitive | 54.7 ± 2.14
5 | Oc1ccc(-c2[o+]c3cc(O)cc(O)c3cc2O)cc1 [Pelargonidin, pelargonidin chloride] | Mixed type, close to non-competitive | 50.3 ± 4
6 | COc1cc(-c2[o+]c3cc(O)cc(O)c3cc2O)cc(O)c1O [Petunidin, petunidin chloride] | Competitive | 30.8 ± 1.17
